Measured values taken from patent publication US20200165574A1, “METHODS OF PREPARING NAÏVE HUMAN PLURIPOTENT STEM CELLS” (REGENTS OF THE UNIVERSITY OF MINNESOTA, priority 2017, published 2020).
Entries after “also recorded” stand apart in the source; their conditions may differ.

Key:
Type in all cases: cell-based, human
naïve HPSCs [1] = experiment: ERK inhibitor assay, naïve PSCs; settings: naïve HPSCs in RSet media, additional 10 nM ERK inhibitor, imaged each day for 4 days; listed as PD325901
Method: (§1) One day after passaging, 10 nM ERK inhibitor PD0325901 (PZ0162, Sigma-Aldrich, St. Louis, Mo.) was added to naïve or primed PSCs. Cells were imaged each day for 4 days to follow morphology changes.

primed HPSCs [2] = experiment: ERK inhibitor assay, primed PSCs; settings: 10 nM ERK inhibitor in media, imaged each day for 4 days
Method: as §1

naïve HPSCs [3] = experiment: Karyotype of transitioned naïve HPSCs (high-resolution G banding); settings: after 10 passages in RSet media
Excerpt: Naïve HPSCs were examined by high-resolution G banding after 10 passages in RSet medium.

primed HPSCs [4] = experiment: Feeder-free transition of primed HPSCs to the naïve state on a culture substrate; settings: RSet media, substrate-coated plate
Method: Primed induced pluripotent stem cell (PCBC16iPS) (Ye et al. (2013) PLoS ONE 8 (1):e53764) to be used for naïve cell derivation were cultured for at least two passages in mTeSR1 medium (STEMCELL Technologies, Vancouver, Canada) in either normoxic (20% O2, 5% CO2) or hypoxic conditions (5% O2, 5% CO2). Primed iPSCs were treated with Gentle Cell Dissociation Reagent (STEMCELL Technologies, Vancouver, Canada) for 5 minutes at room temperature and removed from the plate with a 5 milliliter (mL) pipette in 1 mL TeSR1 medium. Aggregates of 250 primed iPSCs were plated in 1 mL mTeSR1 (STEMCELL Technologies, Vancouver, Canada) per well of a 12-well tissue culture treated plate (Corning, Inc., Corning, N.Y.) coated with 5 micrograms per milliliter (μg/mL) full-length vitronectin (PeproTech, Rocky Hill, N.J.) (Parr et al. (2016) Methods in Molecular Biology 1357:221-9). The plate had been previously coated with vitronectin at 37° C. for 2 hours per manufacturer's protocol. The plated cells were incubated overnight at 37° C., to allow adherence to the vitronectin coated plate. The cells may be incubated in either normoxic or hypoxic conditions, and typically were incubated under the same conditions used to maintain the primed HPSC culture. […] Cells were monitored for compaction and defined colony edges. […]

Molecule: O=C(NOC[C@H](O)CO)c1ccc(F)c(F)c1Nc1ccc(I)cc1F [PD0325901]
- differentiation / maintenance of undifferentiated state (morphology changes) (naïve HPSCs [1]): maintain their undifferentiated state
- differentiation / maintenance of pluripotency (morphology changes) (primed HPSCs [2]): induces differentiation; also recorded: displayed immediate differentiation

B1: full-length recombinant vitronectin: xeno-free recombinant full-length vitronectin (PeproTech), coated on plate at 5 μg/mL as culture substrate (protein, UniProt P04004 1-478, looked up)
chain: MAPLRPLLILALLAWVALADQESCKGRCTEGFNVDKKCQCDELCSYYQSCCTDYTAECKPQVTRGDVFTMPEDEYTVYDDGEEKNNATVHEQVGGPSLTSDLQAQSKGNPEQTPVLKPEEEAPAPEVGASKPEGIDSRPETLHPGRPQPPAEEELCSGKPFDAFTDLKNGSLFAFRGQYCYELDEKAVRPGYPKLIRDVWGIEGPIDAAFTRINCQGKTYLFKGSQYWRFEDGVLDPDYPRNISDGFDGIPDNVDAALALPAHSYSGRERVYFFKGKQYWEYQFQHQPSQEECEGSSLSAVFEHFAMMQRDSWEDIFELLFWGRTSAGTRQPQFISRDWHGVPGQVDAAMAGRIYISGMAPRPSLAKKQRFRHRNRKGYRSQRGHSRGRNQNSRRPSRATWLSLFSSEESNLGANNYDDYRMDWLVPATCEPIQSVFFFSGDKYYRVNLRTRRVDTVDPPYPRSIAQYWLGCPAPGHL
modifications: full-length
notes: xeno-free recombinant full-length vitronectin (PeproTech), coated on plate at 5 μg/mL as culture substrate
- karyotype of naïve HPSCs derived on the substrate (naïve HPSCs [3]): normal karyotype
- support of transition from primed to naïve pluripotent state (primed HPSCs [4]): supports the successful transition
